Measurements as given in patent US20260327655A1, “SMALL-MOLECULE REGULATED ALTERNATIVE SPLICING” (priority 2023, published 2026).

Columns and labels:
[1] = test system: RS1-10 minigene (Firefly Luciferase), HEK-293T cells; test: Luciferase induction assay, RS1-10 with splice modulator compounds in HEK-293T cells; format: cell-based; conditions: Homo sapiens, 18 hours, n of 3, read-out: Mean fold-induction of luciferase (relative to vehicle control)
Protocol: (§1) HEK-293T cells were cultured in DMEM+10% FBS, collected after trypsinization, and then dispensed into 96-well plates (cell culture-treated). Each well of the plate was seeded with 1.0×10^5 cells in 100 μL culture medium. After a 1-hour incubation in a tissue culture incubator (5% CO2, 37 degrees C.), plasmid DNA was complexed with a transfection reagent, such as Lipofectamine 3000, and added to respective wells on the plate. Each well received an equivalent of 100 ng of plasmid DNA complexed with 0.15 μL Lipofectamine. Triplicate wells were used for each condition tested in the experiment. The plasmid utilized in the experiment encoded a CMV promoter upstream of the RS I-10 variant that controlled the expression of a Firefly Luciferase gene followed by a SV40 polyadenylation signal. After a 10-minute incubation at room temperature, either DMSO vehicle or specified compound at specified dose was added to the wells of the plate. Plates were then incubated for 18 hours in a tissue culture incubator. Endpoint analysis was performed by adding 100 uL Steady-Luc Firefly Luciferase substrate to each well of the assay plate. After mixing, the liquid contents of each was transferred to a 96-well plate, mixed again for 2 min on an orbital shaker, and incubated at room temperature for 5 min. Finally, the luminescent signal from each well was measured with a with PerkinElmer Envision plate reader. The results of this assay show RS1-10 responded to the majority of the splice modulator compounds used in a dose responsive manner (FIG. 9C). Bars represent mean+/−standard deviation of 3 wells normalized to vehicle controls.

[2] = test system: RS2-3 minigene (Firefly Luciferase), HEK-293T cells; test: Luciferase induction assay, RS2-3 with splice modulator compounds in HEK-293T cells; format: cell-based; conditions: Homo sapiens, 18 hours, n of 3, read-out: Mean fold-induction of luciferase (relative to vehicle control)
Protocol: as §1, with “RS2-3” for “RS I-10”, “RS2-3” for “RS1-10”, “used” for “used in a dose responsive manner”, “13C)” for “9C).”

[3] = test system: RS3-13 minigene (Firefly Luciferase), HEK-293T cells; test: Luciferase induction assay, RS3-13 with splice modulator compounds in HEK-293T cells; format: cell-based; conditions: Homo sapiens, 18 hours, n of 3, read-out: Mean fold-induction of luciferase (relative to vehicle control)
Protocol: as §1, with “RS3-13” for “the RS I-10 variant”, “RS3-13” for “RS1-10”, “used” for “used in a dose responsive manner”, “14D)” for “9C).”

[4] = test system: RS2-1 and variants; test: Luciferase induction assay, RS2-1 and variants in HEK-293T cells; format: cell-based, human; conditions: 300 nM (FIG. 13A), 18 hours, FIGS. 13A, 13B
Protocol: HEK-293T cells were cultured in DMEM+10% FBS, collected after trypsinization, and dispensed into 96-well plates (cell culture-treated). Each well of the plate was seeded with 1.0×10^5 cells in 100 μL culture medium. After a 1-hour incubation in the tissue culture incubator (5% CO2, 37° C.), plasmid DNA was complexed with a transfection reagent, such as Lipofectamine 3000, and added to respective wells on the plate. Each well received 100 ng of plasmid DNA complexed with 0.15 μL Lipofectamine 3000. The plasmids utilized in the experiment encoded a CMV promoter upstream of the RS2-1 construct and variants that controlled the expression of a Firefly Luciferase gene followed by a SV40 polyadenylation signal. After a 10-minute incubation at room temperature, either DMSO vehicle or 100B at specified doses was added to the wells of the plate. Plates were then incubated for 18 hours in a tissue culture incubator. Endpoint analysis was performed by adding 100 μL of a Luciferase substrate, such as Steady-Luc Firefly Luciferase substrate, to each well of the assay plate. The liquid contents of each was transferred to a 96-well plate, mixed again for 2 min on an orbital shaker, and incubated at room temperature for 5 min. Finally, the luminescent signal from each well was measured with a plate reader. […]

## Cc1cn2cc(-c3nc(=O)n4cc(N5CCNCC5)ccc4n3)cc(F)c2n1.Cl [Compound 100B, 2-(8-fluoro-2-methylimidazo[1,2-a]pyridin-6-yl)-7-(piperazin-1-yl)-4H-pyrido[1,2-a][1,3,5]triazin-4-one hydrochloride]
[1]; RS1-10, 100 nM
  fold induction at 0.1 µM: 11.9
[1]; RS1-10, 1,000 nM
  fold induction at 1 µM: 57.1
[2]; RS2-3, 100 nM
  fold induction at 0.1 µM: 9.79
[2]; RS2-3, 1,000 nM
  fold induction at 1 µM: 26.4
[3]; RS3-13, 100 nM
  fold induction at 0.1 µM: 10
[3]; RS3-13, 1,000 nM
  fold induction at 1 µM: 42.4
[4]
  fold induction of luciferase compared to vehicle, constructs vs RS2-1: The majority of the constructs show higher fold induction of luciferase
